{"source": "paper PMC8472965", "about": "“BmK86-P1, a New Degradation Peptide with Desirable Thermostability and Kv1.2 Channel-Specific Activity from Traditional Chinese Scorpion Medicinal Material” (Toxins, 2021)", "format_in_all_cases": "cell-based", "key": {"[1]": {"molecular_target": "T1, hKv1.2 channel (Homo sapiens, UniProt P16389)", "T1 construct": "expressed in transfected cells; host or cells: HEK293T", "experiment": "Whole-cell patch clamp, hKv1.2 channel overexpressed in HEK293T cells", "conditions": "mean ± S.E., n ≥ 3, SEM", "experimental": "(§1) To investigate the electrophysiological activities of BmK86-P1, the whole-cell patch clamp technique was applied to test the effects of BmK86-P1 on multiple potassium channels. The hKv1.1, hKv1.2, hKv1.3, hKv1.6, hKv3.2, mKv4.1, rKv4.2, rKv4.3 and hERG channels were overexpressed in HEK293T cells, then the inhibitory effects of BmK86-P1 at 1 μM on these potassium channels were measured. […] To further investigate the affinity of BmK86-P1 inhibiting the hKv1.2 channel, a dose-dependent study was performed by examining the inhibitory effects of different concentrations of BmK86-P1.\n(§2) All potassium channel expression vectors were given by others or constructed by ourselves. HEK293T cells were cultured in Dulbecco’s modified Eagle medium (Gibco, Pittsburgh, PA, USA) with 10% fetal bovine serum and penicillin/streptomycin (100 units/mL) in a 5% CO2 incubator at 37 °C. Potassium channel expression vectors and pEGFP-N1 were co-transfected into HEK293T cells using TurboFect in vitro Transfection Reagent (Thermo Scientific, Waltham, MA, USA) according to the manufacturer’s instructions. The potassium currents were recorded after transfection for 1 to 3 days.\nThe channel currents were measured and recorded by whole-cell patch clamp technology according to previously published references. The internal patch pipette solution and the bath solution were prepared as previously described. All the test peptides were dissolved into bath solution supplemented with 0.01% BSA. An MPS-2 multichannel microperfusion system (INBIO Inc., Wuhan, China) was applied to change the external recording bath solution. The infusion time of the peptides should not exceed 20 min to maintain good cell conditions during electrophysiological recordings. The channel currents were recorded at room temperature (~25 °C) using an EPC 10 patch clamp amplifier. The results were presented as the means ± S.E., and in every sample at least three cells (n ≥ 3) were examined.\n(§3) The ClampFit (Molecular Devices, Sunnyvale, CA, USA) and SigmaPlot software ([…], Chicago, IL, USA) were used to analyze the recorded data. […]"}, "[2]": {"molecular_target": "T2, hKv3.2 channel (Homo sapiens, UniProt Q96PR1)", "T2 construct": "expressed in transfected cells; host or cells: HEK293T", "T2 sequence (Q96PR1 1-638)": "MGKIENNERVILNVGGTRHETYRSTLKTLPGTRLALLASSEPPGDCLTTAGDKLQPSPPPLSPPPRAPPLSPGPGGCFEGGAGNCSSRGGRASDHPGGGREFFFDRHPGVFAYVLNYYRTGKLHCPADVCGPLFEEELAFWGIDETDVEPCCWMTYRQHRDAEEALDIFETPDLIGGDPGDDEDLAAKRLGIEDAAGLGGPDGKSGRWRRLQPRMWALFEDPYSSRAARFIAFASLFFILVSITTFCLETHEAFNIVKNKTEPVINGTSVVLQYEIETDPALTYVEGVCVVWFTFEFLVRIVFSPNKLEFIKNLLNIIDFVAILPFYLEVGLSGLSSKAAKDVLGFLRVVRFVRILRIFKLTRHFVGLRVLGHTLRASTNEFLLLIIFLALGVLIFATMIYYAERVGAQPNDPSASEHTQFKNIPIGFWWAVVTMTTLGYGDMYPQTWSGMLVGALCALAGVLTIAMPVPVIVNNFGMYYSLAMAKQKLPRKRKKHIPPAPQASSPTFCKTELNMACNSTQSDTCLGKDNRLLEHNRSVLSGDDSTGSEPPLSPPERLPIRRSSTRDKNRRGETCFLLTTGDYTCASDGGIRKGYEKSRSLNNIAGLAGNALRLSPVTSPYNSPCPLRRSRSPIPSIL", "experiment": "Whole-cell patch clamp, hKv3.2 channel overexpressed in HEK293T cells", "conditions": "1 μM peptide, mean ± S.E., n ≥ 3, SEM", "experimental": "as §1\n(§4) All potassium channel expression vectors were given by others or constructed by ourselves. HEK293T cells were cultured in Dulbecco’s modified Eagle medium (Gibco, Pittsburgh, PA, USA) with 10% fetal bovine serum and penicillin/streptomycin (100 units/mL) in a 5% CO2 incubator at 37 °C. […] The potassium currents were recorded after transfection for 1 to 3 days.\n(§5) The channel currents were measured and recorded by whole-cell patch clamp technology according to previously published references. […] The channel currents were recorded at room temperature (~25 °C) using an EPC 10 patch clamp amplifier. […]\nas §3"}, "[3]": {"molecular_target": "T3, rKv4.2 channel (Rattus norvegicus, UniProt Q63881)", "T3 construct": "expressed in transfected cells; host or cells: HEK293T", "T3 sequence (Q63881 1-630)": "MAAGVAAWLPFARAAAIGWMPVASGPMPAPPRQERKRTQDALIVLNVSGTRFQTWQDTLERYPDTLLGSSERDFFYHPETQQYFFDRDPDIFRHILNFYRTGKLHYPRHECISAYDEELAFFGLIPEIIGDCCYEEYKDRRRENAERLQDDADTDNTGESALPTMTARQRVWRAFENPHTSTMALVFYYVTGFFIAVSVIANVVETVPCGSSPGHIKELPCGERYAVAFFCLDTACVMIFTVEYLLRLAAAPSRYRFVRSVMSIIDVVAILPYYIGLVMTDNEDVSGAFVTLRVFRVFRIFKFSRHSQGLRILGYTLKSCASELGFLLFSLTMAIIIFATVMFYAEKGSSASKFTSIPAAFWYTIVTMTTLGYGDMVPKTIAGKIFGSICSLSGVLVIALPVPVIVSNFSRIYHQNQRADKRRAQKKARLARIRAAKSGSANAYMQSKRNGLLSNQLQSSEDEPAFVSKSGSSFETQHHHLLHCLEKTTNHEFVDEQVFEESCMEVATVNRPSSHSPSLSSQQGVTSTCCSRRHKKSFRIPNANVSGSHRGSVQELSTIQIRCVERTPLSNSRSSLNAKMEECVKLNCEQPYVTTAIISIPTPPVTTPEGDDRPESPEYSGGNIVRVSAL", "experiment": "Whole-cell patch clamp, rKv4.2 channel overexpressed in HEK293T cells", "conditions": "1 μM peptide, mean ± S.E., n ≥ 3, SEM", "experimental": "as §1, §4, §5, §3"}, "[4]": {"molecular_target": "T4, hKv1.2-V381Y (Homo sapiens, UniProt P16389, V381Y)", "T4 construct": "expressed in transfected cells; host or cells: HEK293T", "T4 sequence (P16389 whole entry V381Y)": "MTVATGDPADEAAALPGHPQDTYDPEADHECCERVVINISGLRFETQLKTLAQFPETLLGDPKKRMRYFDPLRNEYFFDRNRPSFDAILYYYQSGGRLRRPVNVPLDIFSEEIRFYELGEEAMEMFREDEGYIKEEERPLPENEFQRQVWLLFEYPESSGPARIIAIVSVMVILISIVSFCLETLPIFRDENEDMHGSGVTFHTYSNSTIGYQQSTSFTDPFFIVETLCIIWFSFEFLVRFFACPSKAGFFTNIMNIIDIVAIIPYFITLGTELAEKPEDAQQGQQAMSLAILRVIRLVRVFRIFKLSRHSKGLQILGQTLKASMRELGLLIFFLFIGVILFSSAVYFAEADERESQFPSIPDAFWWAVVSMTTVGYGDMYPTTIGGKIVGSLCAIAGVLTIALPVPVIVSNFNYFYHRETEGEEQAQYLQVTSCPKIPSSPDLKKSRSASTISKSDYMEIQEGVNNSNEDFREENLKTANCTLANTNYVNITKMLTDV", "experiment": "Whole-cell patch clamp, hKv1.2 channel mutant V381Y", "conditions": "100 nM peptide, HEK293T, mean ± S.E., n ≥ 3, SEM", "experimental": "(§6) To determine the functional sites of the hKv1.2 channel responsible for the selectivity of BmK86-P1, six hKv1.2 mutants were obtained based on sequence differences between the pore regions of the hKv1.2 and hKv1.1 channels (Figure 4A). Then, the activities of 100 nM BmK86-P1 on these six mutant channels were tested. […] The other three mutant channels (hKv1.2-D352E, hKv1.2-R354A and hKv1.2-P359S) still kept similar sensitivities toward BmK86-P1 compared with the wild-type hKv1.2 channel (Figure 4H,I,K,N).\nas §2, §5"}, "[5]": {"molecular_target": "T5, hKv1.6 channel (Homo sapiens, UniProt P17658)", "T5 construct": "expressed in transfected cells; host or cells: HEK293T", "experiment": "Whole-cell patch clamp, hKv1.6 channel overexpressed in HEK293T cells", "conditions": "1 μM peptide, mean ± S.E., n ≥ 3, SEM", "experimental": "as §1, §4, §5, §3"}, "[6]": {"molecular_target": "T6, hKv1.2-D352E (Homo sapiens, UniProt P16389, D352E)", "T6 construct": "expressed in transfected cells; host or cells: HEK293T", "T6 sequence (P16389 whole entry D352E)": "as the sequence (P16389 whole entry V381Y) above, with D352E, Y381V counted along it", "experiment": "Whole-cell patch clamp, hKv1.2 channel mutant D352E", "conditions": "100 nM peptide, HEK293T, mean ± S.E., n ≥ 3, SEM", "experimental": "as §6, §2, §5"}}, "note": "Positions of bridges follow the written chain, without caps; N, C: chain ends. Residues, ends and D or L forms follow the SMILES beside them."}
{"compound": "CC[C@H](C)[C@@H]1NC(=O)[C@@H]2CSSC[C@H](NC(=O)[C@H](C)N)C(=O)N[C@@H](CO)C(=O)N[C@@H](CCCCN)C(=O)N3CCC[C@H]3C(=O)N[C@H]3CSSC[C@H](NC(=O)[C@H](CCCNC(=N)N)NC(=O)CNC(=O)[C@H](CC(N)=O)NC1=O)C(=O)N[C@@H](Cc1c[nH]cn1)C(=O)N[C@H](C(=O)N[C@@H](Cc1ccc(O)cc1)C(=O)N[C@@H](Cc1ccc(O)cc1)C(=O)O)CSSC[C@H](NC(=O)[C@H](Cc1ccc(O)cc1)NC(=O)[C@H](CCCCN)NC(=O)[C@H](CCCNC(=N)N)NC3=O)C(=O)N[C@@H]([C@@H](C)CC)C(=O)N[C@@H](CC(=O)O)C(=O)N[C@@H](CCCCN)C(=O)NCC(=O)N[C@@H](C)C(=O)N[C@@H](CCCNC(=N)N)C(=O)N[C@@H](CC(N)=O)C(=O)NCC(=O)N[C@@H](CCCCN)C(=O)N2", "note": "[BmK86-P1] (H-ACSKPCRKYCIDKGARNGKCINGRCHCYY-OH; disulfide 2-20, 6-25, 10-27 (inferred); N-terminus and C-terminus assumed)", "values": [{"measurement": "inhibition of hKv1.2 channel currents", "setting": "[1]; 100 nM peptide", "result": "74.1 ± 3.2", "unit": "%"}, {"measurement": "inhibition of hKv1.2 channel currents", "setting": "[1]; 1 μM peptide, room temperature (~25 °C)", "result": "88.6 ± 2.2", "unit": "%"}, {"measurement": "IC50", "setting": "[1]; dose-response curve fitted with Hill equation, read-out: IC50, inhibition of the hKv1.2 channel", "result": "28.5 ± 6.3", "unit": "nM"}, {"measurement": "inhibition of hKv3.2 channel currents", "setting": "[2]", "result": "3.8 ± 0.7", "unit": "%"}, {"measurement": "inhibition of rKv4.2 channel currents", "setting": "[3]", "result": "11.0 ± 1.8", "unit": "%"}, {"measurement": "inhibition of hKv1.2-V381Y channel currents", "setting": "[4]", "result": "1.6 ± 0.1", "unit": "%"}, {"measurement": "inhibition of hKv1.6 channel currents", "setting": "[5]", "result": "11.0 ± 1.2", "unit": "%"}, {"measurement": "inhibition of hKv1.2-D352E channel currents", "setting": "[6]", "result": "74.8 ± 1.2", "unit": "%"}]}
